Tests used:
[1] = tested on: pentagastrin-stimulated acid secretion of the perfused rat stomach; assay: Secretion-inhibiting action on the perfused rat stomach (pentagastrin-stimulated acid secretion); assay type: in vivo; details: intraduodenal, anesthetized CD rat, dose 1 μmol/kg i.d.
Excerpt: Testing of the Secretion-Inhibiting Action on the Perfused Rat Stomach
In Table A which follows, the influence of the compounds of the formula 1 according to the invention on the pentagastrin-stimulated acid secretion of the perfused rat stomach after intraduodenal administration in vivo is shown.
The abdomen of anesthetized rats (CD rat, female, 200-250 g; 1.5 g/kg i.m. urethane) was opened after tracheotomy by a median upper abdominal incision and a PVC catheter was fixed transorally in the esophagus and another via the pylorus such that the ends of the tubes just projected into the gastric lumen. The catheter leading from the pylorus led outward into the right abdominal wall through a side opening.
After thorough rinsing (about 50-100 ml), warm (37° C.) physiological NaCl solution was conbinuously passed through the stomach (0.5 ml/min, pH 6.8-6.9; Braun-Unita I). The pH (pH meter 632, glass electrode EA 147; φ=5 mm, Metrohm) and, by titration with a freshly prepared 0.01N NaOH solution to pH 7 (Dosimat 665 Metrohm), the secreted HCl were determined in the effluent in each case collected at an interval of 15 minutes.
The gastric secretion was stimulated by continuous infusion of 1 μg/kg (=1.65 mllh) of i.v. pentagastrin (left femoral vein) about 30 min after the end of the operation (i.e. after determination of 2 preliminary fractions). The substances to be tested were administered intraduodenally in a 2.5 ml/kg liquid volume 60 min after the start of the continuous pentagastrin infusion. The body temperature of the animals was kept at a constant 37.8-38° C. by infrared irradiation and heat pads (automatic, stepless control by means of a rectal temperature sensor).

Compound | melting point | inhibition in vivo at 1 µmol/kg [1]
Cc1nc2c3c(c(C(=O)N4CCC4)cc2n1C)CCC1(Cc2ccccc2C1)N3 [Example 23, 5-(azetidin-1-ylcarbonyl)-2,3-dimethyl-1′,3,3′,6,7,9-hexahydrospiro[imidazo[4,5-h]-quinoline-8,2′-indene]] | 222 to 223 °C | > 80%
Cc1nc2c3c(c(C(=O)NC4CC4)cc2n1C)CCC1(Cc2ccccc2C1)N3 [Example 24, N-cyclopropyl-2,3-dimethyl-1′,3,3′,6,7,9-hexahydrospiro[imidazo[4,5-h]quinoline-8,2′-indene]-5-carboxamide] | 247 to 248 °C | > 80%
Cc1nc2c3c(c(C(=O)N4CCOCC4)cc2n1C)CCC1(Cc2ccccc2C1)N3 [Example 25, 2,3-dimethyl-5-(morpholin-4-ylcarbonyl)-1′,3,3′,6,7,9-hexahydrospiro[imidazo[4,5-h]-quinoline-8,2′-indene]] | 284 to 285 °C | > 80%
COCCCNC(=O)c1cc2c(nc(C)n2C)c2c1CCC1(Cc3ccccc3C1)N2 [Example 27, N-(3-methoxypropyl)-2,3-dimethyl-1′,3,3′,6,7,9-hexahydrospiro[imidazo[4,5-h]quinoline-8,2′-indene]-5-carboxamide] | 188 to 189 °C | > 80%

Source: US20090093473A1, “Spiro-benzimidazoles as inhibitors of gastric acid secretion” (priority 2005, published 2009)
